Results from the NIST ThermoML archive (doi:10.1021/je300487n).

How the values were obtained:
[1] = for viscosity / mass density: 101.33 kPa, Liquid; for viscosity: Concentric cylinders viscometry; for mass density: Vibrating tube method; for surface tension liquid-gas: Drop volume
[2] = refractive index (Na D-line) (dimensionless); conditions: 101.33 kPa, Liquid, Standard Abbe refractometry

CC(=O)[O-].CCn1cc[nH+]c1 [1-ethyl-1H-imidazolium acetate]
Conditions	mass density, [1] [kg/m3]	refractive index, [2]	surface tension liquid-gas, [1] [mN/m]	viscosity, [1] [mPa·s]
283.15 K	1047.2	1.46347	–	7.88
288.15 K	1042.9	1.4616	–	6.669
293.15 K	1038.5	1.45966	–	5.291
298.1 K	–	–	37.8	–
298.15 K	1034.2	1.45769	–	4.955
303.15 K	1029.9	1.45576	–	4.337
307.8 K	–	–	36.7	–
308.15 K	1025.6	1.45379	–	3.828
313.15 K	1021.3	1.45185	–	3.225
318.15 K	1017	1.44985	–	3.051
318.5 K	–	–	36.1	–
323.15 K	1012.7	1.44791	–	2.75
328.15 K	1008.4	1.44593	–	2.492
328.3 K	–	–	35	–
333.15 K	1004.1	1.44395	–	2.171
338.15 K	999.8	1.44197	–	2.078
339.9 K	–	–	33.7	–
343.15 K	995.8	1.44	–	1.91
344.2 K	–	–	33.3	–
348.15 K	991.5	1.438	–	1.762
353.15 K	987.2	1.43607	–	1.547
358.15 K	982.8	–	–	1.515
363.15 K	978.5	–	–	1.412

CC(=O)[O-].CCCCn1cc[n+](C)c1 [1-butyl-3-methylimidazolium acetate]
Conditions	mass density, [1] [kg/m3]	refractive index, [2]	surface tension liquid-gas, [1] [mN/m]	viscosity, [1] [mPa·s]
283.15 K	1062.2	1.49269	–	1037.2
288.15 K	1058.9	1.49158	–	658.84
293.15 K	1055.5	1.49021	–	429.11
298 K	–	–	36.4	–
298.15 K	1052.3	1.4889	–	297.39
303.15 K	1049.2	1.48725	–	209.65
307.8 K	–	–	35.9	–
308.15 K	1046.1	1.4858	–	152.07
313.15 K	1043	1.48438	–	112.23
318 K	–	–	35.5	–
318.15 K	1040	1.48297	–	86.07
323.15 K	1037	1.4806	–	66.82
328.15 K	1034	1.47915	–	52.84
328.6 K	–	–	35.1	–
333.15 K	1031	1.4777	–	42.67
338.15 K	1028	1.47624	–	34.66
339 K	–	–	34.7	–
343.15 K	1025	1.47463	–	28.69
348.15 K	1022.1	1.47318	–	24.04
353.15 K	1019.1	1.4718	–	20.76
358.15 K	1016.2	–	–	17.45
363.15 K	1013.3	–	–	15.08

CC(=O)O.CCN(C)C [N,N-dimethylethanamine acetate]
Conditions	mass density, [1] [kg/m3]	refractive index, [2]	surface tension liquid-gas, [1] [mN/m]	viscosity, [1] [mPa·s]
283.15 K	1028	1.42303	–	26.22
288.15 K	1024	1.42143	–	20.89
293.15 K	1020.1	1.41983	–	16.36
298.15 K	1016.1	1.41819	–	13.97
298.2 K	–	–	33.5	–
303.15 K	1012.2	1.41655	–	11.68
308.1 K	–	–	32.7	–
308.15 K	1008.3	1.41492	–	9.888
313.15 K	1004.4	1.41328	–	8.275
318 K	–	–	32.1	–
318.15 K	1000.5	1.41156	–	7.316
323.15 K	996.8	1.40991	–	6.381
328.15 K	992.9	1.4082	–	5.611
328.4 K	–	–	31.3	–
333.15 K	989	1.40649	–	4.869
338.15 K	985	1.40476	–	4.427
338.2 K	–	–	30.5	–
343.15 K	981.1	1.40312	–	3.97
348.15 K	977.2	1.40138	–	3.578
353.15 K	973.1	1.39963	–	3.132
358.15 K	969.1	–	–	2.943
363.15 K	965.1	–	–	2.691

CC(=O)[O-].CCCC[N+]1(C)CCCC1 [1-butyl-1-methylpyrrolidinium acetate]
Conditions	mass density, [1] [kg/m3]	refractive index, [2]	surface tension liquid-gas, [1] [mN/m]	viscosity, [1] [mPa·s]
283.15 K	–	1.47263	–	–
288.15 K	–	1.47144	–	–
293.15 K	–	1.47075	–	–
298.15 K	1021.2	1.46998	–	106.63
298.3 K	–	–	37.4	–
303.15 K	1018.1	1.46868	–	79.92
307.9 K	–	–	36.8	–
308.15 K	1015.1	1.46736	–	61.34
313.15 K	1012.1	1.46603	–	48.45
318 K	–	–	36.4	–
318.15 K	1009.2	1.46461	–	38.34
323.15 K	1006.2	1.4632	–	31.1
328.15 K	1003.3	1.46178	–	25.61
328.4 K	–	–	36.1	–
333.15 K	1000.4	1.46042	–	21.64
338.15 K	997.8	1.459	–	18.05
338.5 K	–	–	35.6	–
343.15 K	994.9	1.45755	–	15.42
343.6 K	–	–	34.4	–
348.15 K	992	1.45619	–	13.3
353.15 K	989.2	1.45479	–	11.84
358.15 K	986.3	–	–	10.16
363.15 K	983.5	–	–	8.983

CC(=O)[O-].CCn1cc[n+](C)c1 [1-ethyl-3-methylimidazolium acetate]
[2]
Conditions	refractive index
283.15 K	1.50402
288.15 K	1.50267
293.15 K	1.50129
298.15 K	1.49992
303.15 K	1.49854
308.15 K	1.49718
313.15 K	1.49581
318.15 K	1.49447
323.15 K	1.49307
328.15 K	1.49171
333.15 K	1.49035
338.15 K	1.48899
343.15 K	1.48756
348.15 K	1.48613
353.15 K	1.48476
